{"source": "paper doi:10.1101/2025.10.16.682360v1", "about": "“Live-Cell Chemoproteomic Profiling Identifies the Uncharacterised Protein YbaA as a Direct Target of Ciprofloxacin in Escherichia coli” (biorxiv, 2025)", "key": {"[1]": {"molecular_target": "T1, YjdN (Escherichia coli, UniProt P16681)", "T1 construct": "C-terminal His10 tag; purified by IMAC and size exclusion chromatography", "T1 sequence (P16681 1-147)": "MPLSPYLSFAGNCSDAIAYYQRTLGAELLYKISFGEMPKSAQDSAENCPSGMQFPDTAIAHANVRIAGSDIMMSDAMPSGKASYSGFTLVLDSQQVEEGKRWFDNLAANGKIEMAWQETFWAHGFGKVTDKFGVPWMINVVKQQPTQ", "test": "surface plasmon resonance", "assay_type": "binding", "excerpt": "surface plasmon resonance on YjdN | Direct binding of CFX to YjdN or YbaA was further assessed by surface plasmon resonance"}, "[2]": {"molecular_target": "T2, YbaA (Escherichia coli, UniProt P0AAQ6)", "T2 construct": "C-terminal His10 tag; purified by IMAC and size exclusion chromatography; printed peptide IVECWASDVPDGKVTDFR", "T2 sequence (P0AAQ6 1-117)": "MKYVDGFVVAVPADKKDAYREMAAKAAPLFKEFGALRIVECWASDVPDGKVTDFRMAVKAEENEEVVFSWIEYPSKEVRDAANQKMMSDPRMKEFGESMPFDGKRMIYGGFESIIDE", "test": "surface plasmon resonance", "assay_type": "binding", "excerpt": "surface plasmon resonance on YbaA | Direct binding of CFX to YjdN or YbaA was further assessed by surface plasmon resonance"}}}
{"molecule": "O=C(O)c1cn(C2CC2)c2cc(N3CCNCC3)c(F)cc2c1=O", "note": "[compound 1, Ciprofloxacin]", "values": [{"measurement": "Kd", "setting": "[1]", "result": "1.4 ± 0.62", "unit": "µM"}, {"measurement": "Kd", "setting": "[2]", "result": "1 ± 0.34", "unit": "µM"}]}
